Assay results taken from the kinase profiling compilation of Christmann-Franck et al. (2016).

Columns and labels:
Test in all cases: KINOMEscan competition binding
Details in all cases: compound 10.0 µM
STK32C (human) = STK32C (human) (UniProt Q86UX6)
SIK3 (human) = SIK3 (human) (UniProt Q9Y2K2)
GRK7 (human) = GRK7 (human) (UniProt Q8WTQ7)
SRC (human) = SRC (human) (UniProt P12931)
RAF1 (human) = RAF1 (human) (UniProt P04049)
MARK1 (human) = MARK1 (human) (UniProt Q9P0L2)
PLK4 (human) = PLK4 (human) (UniProt O00444)
NEK11 (human) = NEK11 (human) (UniProt Q8NG66)
BTK (human) = BTK (human) (UniProt Q06187)
MAP4K3 (human) = MAP4K3 (human) (UniProt Q8IVH8)
SRPK3 (human) = SRPK3 (human) (UniProt Q9UPE1)
PTK2B (human) = PTK2B (human) (UniProt Q14289)
NUAK2 (human) = NUAK2 (human) (UniProt Q9H093)
AKT3 (human) = AKT3 (human) (UniProt Q9Y243)
Sequence of AKT3 (human) (Q9Y243 whole entry, looked up): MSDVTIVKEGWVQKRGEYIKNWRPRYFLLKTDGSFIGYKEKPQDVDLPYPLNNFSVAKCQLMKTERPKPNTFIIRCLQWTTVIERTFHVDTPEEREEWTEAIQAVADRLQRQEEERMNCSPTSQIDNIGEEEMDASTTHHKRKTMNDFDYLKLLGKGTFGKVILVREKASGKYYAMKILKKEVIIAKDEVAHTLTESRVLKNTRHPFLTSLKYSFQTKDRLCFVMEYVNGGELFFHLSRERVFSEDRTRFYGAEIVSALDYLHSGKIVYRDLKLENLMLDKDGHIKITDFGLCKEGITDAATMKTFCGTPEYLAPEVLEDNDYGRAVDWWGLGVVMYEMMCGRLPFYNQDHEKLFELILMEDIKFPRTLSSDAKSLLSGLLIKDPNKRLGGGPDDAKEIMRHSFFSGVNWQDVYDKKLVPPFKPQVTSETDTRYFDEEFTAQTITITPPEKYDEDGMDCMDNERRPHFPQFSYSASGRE

CAMK2D (human) = CAMK2D (human) (UniProt Q13557)
STK32B (human) = STK32B (human) (UniProt Q9NY57)
NTRK1 (human) = NTRK1 (human) (UniProt P04629)
EPHB4 (human) = EPHB4 (human) (UniProt P54760)
GSK3A (human) = GSK3A (human) (UniProt P49840)
STK4 (human) = STK4 (human) (UniProt Q13043)
Sequence of STK4 (human) (Q13043 whole entry, looked up): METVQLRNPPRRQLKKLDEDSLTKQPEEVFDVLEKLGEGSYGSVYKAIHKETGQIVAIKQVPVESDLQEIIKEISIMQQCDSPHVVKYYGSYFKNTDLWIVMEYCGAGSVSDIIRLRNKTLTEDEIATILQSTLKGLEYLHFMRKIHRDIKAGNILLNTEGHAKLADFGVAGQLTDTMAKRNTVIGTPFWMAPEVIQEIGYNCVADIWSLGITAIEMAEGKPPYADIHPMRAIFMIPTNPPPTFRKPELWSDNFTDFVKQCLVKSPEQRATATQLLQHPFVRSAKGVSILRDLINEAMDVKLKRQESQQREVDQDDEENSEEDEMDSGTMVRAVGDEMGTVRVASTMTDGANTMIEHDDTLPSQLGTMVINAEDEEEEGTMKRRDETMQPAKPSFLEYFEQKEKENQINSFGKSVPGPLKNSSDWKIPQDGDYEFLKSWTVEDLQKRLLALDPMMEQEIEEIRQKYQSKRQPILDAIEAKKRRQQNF

PIK3C2G (human) = PIK3C2G (human) (UniProt O75747)
ULK3 (human) = ULK3 (human) (UniProt Q6PHR2)
NLK (human) = NLK (human) (UniProt Q9UBE8)
HIPK3 (human) = HIPK3 (human) (UniProt Q9H422)
EPHA7 (human) = EPHA7 (human) (UniProt Q15375)
[1] = target: TYK2 JH2 pseudokinase (human) (UniProt P29597)
PIK3CG (human) = PIK3CG (human) (UniProt P48736)
ABL2 (human) = ABL2 (human) (UniProt P42684)
Sequence of ABL2 (human) (P42684 whole entry, looked up): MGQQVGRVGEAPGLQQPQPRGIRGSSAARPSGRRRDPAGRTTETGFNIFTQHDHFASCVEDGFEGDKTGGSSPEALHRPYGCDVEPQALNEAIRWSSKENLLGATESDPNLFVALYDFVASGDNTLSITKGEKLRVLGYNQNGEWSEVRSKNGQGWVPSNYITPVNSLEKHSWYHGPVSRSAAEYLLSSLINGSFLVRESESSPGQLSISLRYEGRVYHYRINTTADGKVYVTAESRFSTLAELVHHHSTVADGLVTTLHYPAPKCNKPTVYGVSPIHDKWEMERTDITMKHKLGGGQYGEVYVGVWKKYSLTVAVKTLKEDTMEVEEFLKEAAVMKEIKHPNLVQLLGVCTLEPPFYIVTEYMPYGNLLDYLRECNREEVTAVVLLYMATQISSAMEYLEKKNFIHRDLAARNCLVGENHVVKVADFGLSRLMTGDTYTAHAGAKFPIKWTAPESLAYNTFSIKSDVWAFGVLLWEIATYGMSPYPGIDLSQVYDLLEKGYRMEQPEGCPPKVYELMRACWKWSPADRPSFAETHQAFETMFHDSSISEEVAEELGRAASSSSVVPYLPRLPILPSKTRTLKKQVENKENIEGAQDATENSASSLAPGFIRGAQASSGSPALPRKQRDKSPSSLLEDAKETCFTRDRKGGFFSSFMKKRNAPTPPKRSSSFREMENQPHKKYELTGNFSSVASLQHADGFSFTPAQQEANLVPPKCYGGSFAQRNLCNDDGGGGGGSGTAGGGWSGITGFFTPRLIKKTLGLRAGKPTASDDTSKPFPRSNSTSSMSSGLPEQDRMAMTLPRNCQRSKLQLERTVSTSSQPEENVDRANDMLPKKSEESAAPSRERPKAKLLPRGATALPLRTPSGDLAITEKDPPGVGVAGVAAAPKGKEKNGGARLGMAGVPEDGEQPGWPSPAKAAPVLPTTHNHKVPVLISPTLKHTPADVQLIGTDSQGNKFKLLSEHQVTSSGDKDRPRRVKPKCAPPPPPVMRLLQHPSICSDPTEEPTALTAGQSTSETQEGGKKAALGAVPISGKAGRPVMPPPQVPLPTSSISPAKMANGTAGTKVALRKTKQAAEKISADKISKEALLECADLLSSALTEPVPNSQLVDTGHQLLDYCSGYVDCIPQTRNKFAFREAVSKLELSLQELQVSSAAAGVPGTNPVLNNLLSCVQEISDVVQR

PKN3 (M.tuberculosis) = PKN3 (M.tuberculosis) (UniProt Q6P5Z2)
NTRK2 (human) = NTRK2 (human) (UniProt Q16620)
PTK2 (human) = PTK2 (human) (UniProt Q05397)
AAK1 (human) = AAK1 (human) (UniProt Q2M2I8)
CLK4 (human) = CLK4 (human) (UniProt Q9HAZ1)
MAP3K9 (human) = MAP3K9 (human) (UniProt P80192)
RPS6KA2 KD2 (human) = RPS6KA2 KD2 (human) (UniProt Q15349)
STK32A (human) = STK32A (human) (UniProt Q8WU08)
Sequence of STK32A (human) (Q8WU08 whole entry, looked up): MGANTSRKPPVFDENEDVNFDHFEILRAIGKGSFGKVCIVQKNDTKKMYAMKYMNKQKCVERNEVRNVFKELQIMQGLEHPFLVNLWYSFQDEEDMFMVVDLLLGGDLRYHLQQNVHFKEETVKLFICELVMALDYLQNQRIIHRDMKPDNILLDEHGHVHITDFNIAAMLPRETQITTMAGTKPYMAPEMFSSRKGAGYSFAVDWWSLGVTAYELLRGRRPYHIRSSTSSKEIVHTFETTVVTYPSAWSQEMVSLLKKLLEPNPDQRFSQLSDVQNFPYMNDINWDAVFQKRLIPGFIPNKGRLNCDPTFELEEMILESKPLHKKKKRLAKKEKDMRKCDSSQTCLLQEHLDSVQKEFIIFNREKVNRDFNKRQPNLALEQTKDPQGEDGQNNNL

ROCK1 (human) = ROCK1 (human) (UniProt Q13464)
Sequence of ROCK1 (human) (Q13464 whole entry, looked up): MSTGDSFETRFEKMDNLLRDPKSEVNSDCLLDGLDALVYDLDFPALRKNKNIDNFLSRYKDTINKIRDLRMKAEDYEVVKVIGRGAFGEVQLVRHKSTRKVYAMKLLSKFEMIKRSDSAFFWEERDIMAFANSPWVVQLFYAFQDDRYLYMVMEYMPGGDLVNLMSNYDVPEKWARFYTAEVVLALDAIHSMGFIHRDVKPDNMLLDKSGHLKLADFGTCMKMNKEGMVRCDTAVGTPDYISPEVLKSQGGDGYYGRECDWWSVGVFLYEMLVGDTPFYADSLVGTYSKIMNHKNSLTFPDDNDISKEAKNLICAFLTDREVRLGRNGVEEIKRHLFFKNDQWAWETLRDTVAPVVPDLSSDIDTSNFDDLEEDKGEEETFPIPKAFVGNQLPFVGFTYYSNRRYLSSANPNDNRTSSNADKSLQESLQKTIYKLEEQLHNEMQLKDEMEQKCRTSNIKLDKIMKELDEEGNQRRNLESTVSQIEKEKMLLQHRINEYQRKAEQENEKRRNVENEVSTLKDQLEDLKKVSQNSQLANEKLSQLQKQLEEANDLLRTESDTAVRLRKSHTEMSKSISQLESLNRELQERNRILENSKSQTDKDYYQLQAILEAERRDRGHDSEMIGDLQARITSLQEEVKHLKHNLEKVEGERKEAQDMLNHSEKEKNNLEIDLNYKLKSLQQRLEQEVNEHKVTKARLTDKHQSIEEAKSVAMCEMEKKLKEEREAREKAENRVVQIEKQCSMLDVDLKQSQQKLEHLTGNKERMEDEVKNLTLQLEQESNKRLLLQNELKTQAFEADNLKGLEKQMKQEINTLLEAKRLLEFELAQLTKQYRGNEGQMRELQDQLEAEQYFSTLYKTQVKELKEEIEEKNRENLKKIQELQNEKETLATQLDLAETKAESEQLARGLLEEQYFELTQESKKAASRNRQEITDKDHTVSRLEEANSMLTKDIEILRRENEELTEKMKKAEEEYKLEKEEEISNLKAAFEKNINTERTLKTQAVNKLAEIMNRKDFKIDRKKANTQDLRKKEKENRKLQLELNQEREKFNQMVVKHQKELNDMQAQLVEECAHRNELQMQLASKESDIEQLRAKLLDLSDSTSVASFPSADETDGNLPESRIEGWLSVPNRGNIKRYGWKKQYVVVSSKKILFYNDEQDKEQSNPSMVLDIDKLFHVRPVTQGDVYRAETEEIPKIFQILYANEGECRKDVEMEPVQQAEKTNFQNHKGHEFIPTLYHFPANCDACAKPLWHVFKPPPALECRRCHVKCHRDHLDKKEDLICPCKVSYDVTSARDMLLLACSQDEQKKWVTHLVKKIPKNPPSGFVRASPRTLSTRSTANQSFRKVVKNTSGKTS

PKN1 (human) = PKN1 (human) (UniProt Q16512)
FGFR4 (human) = FGFR4 (human) (UniProt P22455)
YES1 (human) = YES1 (human) (UniProt P07947)

Sequence of RAF1 (human) (P04049 whole entry, looked up): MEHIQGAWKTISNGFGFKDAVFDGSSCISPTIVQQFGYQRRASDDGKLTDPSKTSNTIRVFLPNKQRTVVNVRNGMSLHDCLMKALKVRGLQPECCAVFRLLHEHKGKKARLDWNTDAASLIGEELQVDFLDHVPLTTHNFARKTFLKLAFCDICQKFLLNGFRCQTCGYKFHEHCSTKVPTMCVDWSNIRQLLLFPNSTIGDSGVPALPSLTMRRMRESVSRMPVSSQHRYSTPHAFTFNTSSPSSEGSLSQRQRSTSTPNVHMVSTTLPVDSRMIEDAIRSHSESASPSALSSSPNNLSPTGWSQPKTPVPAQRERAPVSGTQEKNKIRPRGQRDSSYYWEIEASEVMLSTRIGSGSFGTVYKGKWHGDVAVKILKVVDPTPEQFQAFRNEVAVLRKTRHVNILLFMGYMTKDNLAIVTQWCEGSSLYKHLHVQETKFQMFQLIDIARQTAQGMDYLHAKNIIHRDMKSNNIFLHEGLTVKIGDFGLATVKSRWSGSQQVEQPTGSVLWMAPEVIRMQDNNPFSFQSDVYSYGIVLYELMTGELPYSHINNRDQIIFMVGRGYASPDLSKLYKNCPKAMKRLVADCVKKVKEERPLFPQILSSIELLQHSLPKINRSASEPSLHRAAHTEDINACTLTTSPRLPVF
Sequence of STK32C (human) (Q86UX6 whole entry, looked up): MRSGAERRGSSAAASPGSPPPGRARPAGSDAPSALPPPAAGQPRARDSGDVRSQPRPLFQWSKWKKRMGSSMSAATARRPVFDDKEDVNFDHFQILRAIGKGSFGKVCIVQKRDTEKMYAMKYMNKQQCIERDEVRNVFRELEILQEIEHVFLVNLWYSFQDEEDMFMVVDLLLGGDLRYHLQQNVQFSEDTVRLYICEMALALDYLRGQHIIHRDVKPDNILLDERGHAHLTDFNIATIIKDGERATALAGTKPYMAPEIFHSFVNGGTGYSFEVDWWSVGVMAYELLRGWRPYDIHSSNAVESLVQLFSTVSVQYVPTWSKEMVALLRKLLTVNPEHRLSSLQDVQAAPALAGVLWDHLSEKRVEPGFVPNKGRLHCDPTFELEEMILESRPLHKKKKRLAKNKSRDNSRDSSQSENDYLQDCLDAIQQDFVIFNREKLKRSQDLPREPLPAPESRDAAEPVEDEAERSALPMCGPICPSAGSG

## O=c1[nH]c2ccccc2n1C1CCN(Cc2ccc(-c3nc4cc5[nH]cnc5cc4nc3-c3ccccc3)cc2)CC1
STK32C (human)
  kinase still bound, per cent of control: 87%
SIK3 (human)
  kinase still bound, per cent of control: 88%
GRK7 (human)
  kinase still bound, per cent of control: 98%
SRC (human)
  kinase still bound, per cent of control: 81%
RAF1 (human)
  kinase still bound, per cent of control: 99%
MARK1 (human)
  kinase still bound, per cent of control: 97%
PLK4 (human)
  kinase still bound, per cent of control: 60%
NEK11 (human)
  kinase still bound, per cent of control: 100%
BTK (human)
  kinase still bound, per cent of control: 100%
MAP4K3 (human)
  kinase still bound, per cent of control: 100%
SRPK3 (human)
  kinase still bound, per cent of control: 87%
PTK2B (human)
  kinase still bound, per cent of control: 91%
NUAK2 (human)
  kinase still bound, per cent of control: 67%
AKT3 (human)
  kinase still bound, per cent of control: 100%
CAMK2D (human)
  kinase still bound, per cent of control: 100%
STK32B (human)
  kinase still bound, per cent of control: 88%
NTRK1 (human)
  kinase still bound, per cent of control: 100%
EPHB4 (human)
  kinase still bound, per cent of control: 100%
GSK3A (human)
  kinase still bound, per cent of control: 100%
STK4 (human)
  kinase still bound, per cent of control: 77%
PIK3C2G (human)
  kinase still bound, per cent of control: 75%
ULK3 (human)
  kinase still bound, per cent of control: 80%
NLK (human)
  kinase still bound, per cent of control: 87%
HIPK3 (human)
  kinase still bound, per cent of control: 87%
EPHA7 (human)
  kinase still bound, per cent of control: 100%
[1]
  kinase still bound, per cent of control: 66%
PIK3CG (human)
  kinase still bound, per cent of control: 25%
ABL2 (human)
  kinase still bound, per cent of control: 100%
PKN3 (M.tuberculosis)
  kinase still bound, per cent of control: 78%
NTRK2 (human)
  kinase still bound, per cent of control: 85%
PTK2 (human)
  kinase still bound, per cent of control: 95%
AAK1 (human)
  kinase still bound, per cent of control: 100%
CLK4 (human)
  kinase still bound, per cent of control: 95%
MAP3K9 (human)
  kinase still bound, per cent of control: 96%
RPS6KA2 KD2 (human)
  kinase still bound, per cent of control: 100%
STK32A (human)
  kinase still bound, per cent of control: 66%
ROCK1 (human)
  kinase still bound, per cent of control: 66%
PKN1 (human)
  kinase still bound, per cent of control: 100%
FGFR4 (human)
  kinase still bound, per cent of control: 100%
YES1 (human)
  kinase still bound, per cent of control: 100%

## CNC(=O)Nc1ccc(-c2nc(N3CC4CCC(C3)O4)c3cnn(C4CCC5(CC4)OCCO5)c3n2)cc1
STK32C (human)
  kinase still bound, per cent of control: 90%
SIK3 (human)
  kinase still bound, per cent of control: 35%
GRK7 (human)
  kinase still bound, per cent of control: 91%
SRC (human)
  kinase still bound, per cent of control: 75%
RAF1 (human)
  kinase still bound, per cent of control: 100%
MARK1 (human)
  kinase still bound, per cent of control: 100%
PLK4 (human)
  kinase still bound, per cent of control: 75%
NEK11 (human)
  kinase still bound, per cent of control: 99%
BTK (human)
  kinase still bound, per cent of control: 90%
MAP4K3 (human)
  kinase still bound, per cent of control: 94%
SRPK3 (human)
  kinase still bound, per cent of control: 100%
PTK2B (human)
  kinase still bound, per cent of control: 100%
NUAK2 (human)
  kinase still bound, per cent of control: 100%
AKT3 (human)
  kinase still bound, per cent of control: 86%
CAMK2D (human)
  kinase still bound, per cent of control: 100%
STK32B (human)
  kinase still bound, per cent of control: 86%
NTRK1 (human)
  kinase still bound, per cent of control: 100%
EPHB4 (human)
  kinase still bound, per cent of control: 100%
GSK3A (human)
  kinase still bound, per cent of control: 82%
STK4 (human)
  kinase still bound, per cent of control: 100%
PIK3C2G (human)
  kinase still bound, per cent of control: 22%
ULK3 (human)
  kinase still bound, per cent of control: 92%
NLK (human)
  kinase still bound, per cent of control: 85%
HIPK3 (human)
  kinase still bound, per cent of control: 42%
EPHA7 (human)
  kinase still bound, per cent of control: 87%
[1]
  kinase still bound, per cent of control: 100%
PIK3CG (human)
  kinase still bound, per cent of control: 72%
ABL2 (human)
  kinase still bound, per cent of control: 84%
PKN3 (M.tuberculosis)
  kinase still bound, per cent of control: 94%
NTRK2 (human)
  kinase still bound, per cent of control: 100%
PTK2 (human)
  kinase still bound, per cent of control: 78%
AAK1 (human)
  kinase still bound, per cent of control: 100%
CLK4 (human)
  kinase still bound, per cent of control: 88%
MAP3K9 (human)
  kinase still bound, per cent of control: 97%
RPS6KA2 KD2 (human)
  kinase still bound, per cent of control: 93%
STK32A (human)
  kinase still bound, per cent of control: 99%
ROCK1 (human)
  kinase still bound, per cent of control: 100%
PKN1 (human)
  kinase still bound, per cent of control: 100%
FGFR4 (human)
  kinase still bound, per cent of control: 62%
YES1 (human)
  kinase still bound, per cent of control: 97%
